From PMC12148480 (The Journal of Biological Chemistry, 2025)
Entries after “also recorded” stand apart in the source; their conditions may differ.

Assays:
[1] = target: T1, rat brain cortical homogenates (Rattus norvegicus, UniProt P11275); experiment: [3H]NCS-382 binding to rat brain cortical homogenates
T1 construct: from tissue; host or cells: rat brain cortical homogenate

CaMKIIα [2] = conditions: CaMKIIα binding assays previously reported; cited from earlier work
[3] = target: T2, CaMKIIα R433Q/R453Q/R469Q (Rattus norvegicus, UniProt P11275, R433Q/R453Q/R469Q); experiment: [3H]HOCPCA binding, HEK293T whole-cell homogenate, CaMKIIα triple mutant; conditions: CaMKIIα triple mutant RRR433/453/469QQQ
T2 construct: host or cells: HEK293T whole-cell homogenate
T2 sequence (P11275 whole entry R433Q/R453Q/R469Q): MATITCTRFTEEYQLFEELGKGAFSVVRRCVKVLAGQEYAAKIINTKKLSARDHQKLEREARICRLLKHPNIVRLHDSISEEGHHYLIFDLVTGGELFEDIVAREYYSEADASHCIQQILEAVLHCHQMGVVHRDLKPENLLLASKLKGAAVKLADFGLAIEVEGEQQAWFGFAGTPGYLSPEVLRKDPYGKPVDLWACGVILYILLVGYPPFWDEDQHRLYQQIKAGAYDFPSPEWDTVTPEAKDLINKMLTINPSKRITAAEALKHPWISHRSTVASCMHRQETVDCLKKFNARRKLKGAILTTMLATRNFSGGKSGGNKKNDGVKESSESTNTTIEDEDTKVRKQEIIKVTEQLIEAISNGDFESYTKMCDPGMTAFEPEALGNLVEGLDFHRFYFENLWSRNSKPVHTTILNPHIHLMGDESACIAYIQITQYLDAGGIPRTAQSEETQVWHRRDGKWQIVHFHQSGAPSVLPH
Description: (§1) Recombinant HEK293T whole-cell homogenate equilibrium binding experiments were performed similar to that described previously ([14]), using a 48-well assay format. […] The binding reaction was terminated by precipitation with ice-cold acetone (1 h at −20 °C), and radioligand-bound protein was separated from free radioligand by vacuum-filtration through glass fibre (GF/C) filters. Counts (disintegrations per minute [DPM]) were detected by liquid scintillation counting ([14]). Counts for CaMKIIα WT typically ranged from 2000 to 6000 DPM with [^3H]HOCPCA and 1800 to 5000 DPM with [^3H]O-5-HDC, slightly lower for the CaMKIIβ […] mutant. All experiments were performed in technical triplicates using at least three different batches of HEK293T cell homogenates.
(§2) Data analysis: The specific binding was determined as Total binding subtracted NSB. For the pooling of data from recombinant binding, the specific binding of the variant was normalized to the specific binding of CaMKIIα WT within each experiment.

CaMKIIα R453Q = target: T3, CaMKIIα R453Q (Rattus norvegicus, UniProt P11275, R453Q); experiment: [3H]HOCPCA binding, HEK293T whole-cell homogenate, CaMKIIα R453Q; conditions: normalized to CaMKIIα WT
T3 construct: host or cells: HEK293T whole-cell homogenate
T3 sequence (P11275 whole entry R453Q): as the sequence (P11275 whole entry R433Q/R453Q/R469Q) above, with Q433R, Q469R counted along it
Description: as §1, §2

CaMKIIγ C518R = target: T4, CaMKIIγ C518R (Rattus norvegicus, UniProt P11730, C518R); experiment: [3H]HOCPCA binding, HEK293T whole-cell homogenate, CaMKIIγ C518R
T4 construct: host or cells: HEK293T whole-cell homogenate
T4 sequence (P11730 whole entry C518R): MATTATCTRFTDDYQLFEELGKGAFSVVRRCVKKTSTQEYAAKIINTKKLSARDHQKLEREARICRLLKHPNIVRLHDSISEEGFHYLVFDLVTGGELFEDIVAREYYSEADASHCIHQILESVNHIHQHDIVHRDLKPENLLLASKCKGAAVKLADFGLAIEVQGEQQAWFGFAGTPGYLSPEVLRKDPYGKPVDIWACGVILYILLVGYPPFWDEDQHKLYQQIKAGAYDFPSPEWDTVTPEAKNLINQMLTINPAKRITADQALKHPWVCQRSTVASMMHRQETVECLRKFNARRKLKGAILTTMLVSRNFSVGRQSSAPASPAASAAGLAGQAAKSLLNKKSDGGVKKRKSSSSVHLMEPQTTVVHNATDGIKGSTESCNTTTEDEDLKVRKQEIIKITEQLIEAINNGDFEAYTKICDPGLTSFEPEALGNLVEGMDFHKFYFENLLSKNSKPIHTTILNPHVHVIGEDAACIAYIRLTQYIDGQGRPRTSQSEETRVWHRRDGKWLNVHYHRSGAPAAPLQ
Description: as §1, §2

CaMKIIβ C533R = target: T5, CaMKIIβ C533R (Rattus norvegicus, UniProt P08413, C533R); experiment: [3H]HOCPCA binding, HEK293T whole-cell homogenate, CaMKIIβ C533R
T5 construct: host or cells: HEK293T whole-cell homogenate
T5 sequence (P08413 whole entry C533R): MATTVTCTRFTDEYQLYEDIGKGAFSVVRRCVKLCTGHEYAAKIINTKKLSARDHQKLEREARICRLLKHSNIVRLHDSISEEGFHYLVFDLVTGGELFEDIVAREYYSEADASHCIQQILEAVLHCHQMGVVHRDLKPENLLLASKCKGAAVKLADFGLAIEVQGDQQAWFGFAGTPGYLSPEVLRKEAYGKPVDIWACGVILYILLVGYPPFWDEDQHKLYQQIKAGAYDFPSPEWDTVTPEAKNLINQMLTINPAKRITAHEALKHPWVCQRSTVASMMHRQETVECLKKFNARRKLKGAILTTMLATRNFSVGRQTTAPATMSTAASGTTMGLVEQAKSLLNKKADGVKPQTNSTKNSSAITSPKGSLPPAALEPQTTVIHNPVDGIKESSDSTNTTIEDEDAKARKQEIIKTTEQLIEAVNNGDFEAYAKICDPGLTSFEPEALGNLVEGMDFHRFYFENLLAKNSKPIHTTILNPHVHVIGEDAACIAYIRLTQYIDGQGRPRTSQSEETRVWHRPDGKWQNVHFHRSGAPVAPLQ
Description: as §1, §2

CaMKIIβ L467W = target: T6, CaMKIIβ L467W (Rattus norvegicus, UniProt P08413, L467W); experiment: [3H]HOCPCA binding, HEK293T whole-cell homogenate, CaMKIIβ L467W
T6 construct: host or cells: HEK293T whole-cell homogenate
T6 sequence (P08413 whole entry L467W): as the sequence (P08413 whole entry C533R) above, with L467W, R533C counted along it
Description: as §1, §2

CaMKIIα R469Q = target: T7, CaMKIIα R469Q (Rattus norvegicus, UniProt P11275, R469Q); experiment: [3H]HOCPCA binding, HEK293T whole-cell homogenate, CaMKIIα R469Q; conditions: 40 nM radioligand
T7 construct: host or cells: HEK293T whole-cell homogenate
T7 sequence (P11275 whole entry R469Q): as the sequence (P11275 whole entry R433Q/R453Q/R469Q) above, with Q433R, Q453R counted along it
Description: as §1, §2

CaMKIIβ L467W/C533R [4] = target: T8, CaMKIIβ L467W/C533R (Rattus norvegicus, UniProt P08413, C533R/L467W); experiment: [3H]HOCPCA binding, HEK293T whole-cell homogenate, CaMKIIβ L467W/C533R
T8 construct: host or cells: HEK293T whole-cell homogenate
T8 sequence (P08413 whole entry L467W/C533R): as the sequence (P08413 whole entry C533R) above, with L467W counted along it
Description: as §1, §2

CaMKIIβ WT = target: T9, CaMKIIβ WT (Rattus norvegicus, UniProt P08413); experiment: [3H]HOCPCA binding, HEK293T whole-cell homogenate, CaMKIIβ WT
T9 construct: host or cells: HEK293T whole-cell homogenate
T9 sequence (P08413 whole entry): as the sequence (P08413 whole entry C533R) above, with R533C counted along it
Description: as §1, §2

CaMKIIα W403L = target: T10, CaMKIIα W403L (Rattus norvegicus, UniProt P11275, W403L); experiment: [3H]HOCPCA binding, HEK293T whole-cell homogenate, CaMKIIα W403L; conditions: p = 0.0038
T10 construct: host or cells: HEK293T whole-cell homogenate
T10 sequence (P11275 whole entry W403L): as the sequence (P11275 whole entry R433Q/R453Q/R469Q) above, with W403L, Q433R, Q453R, Q469R counted along it
Description: as §1, §2

[5] = system: CaMKIIα (rat cortical homogenate); parameters: method as in earlier work; conditions: comparative value, [3H]HOCPCA binding, ref 1 (Leurs et al., PNAS 2021); cited from earlier work
CaMKIIα H395A = target: T11, CaMKIIα H395A (Rattus norvegicus, UniProt P11275, H395A); experiment: [3H]HOCPCA binding, HEK293T whole-cell homogenate, CaMKIIα H395A; conditions: normalized to CaMKIIα WT
T11 construct: host or cells: HEK293T whole-cell homogenate
T11 sequence (P11275 whole entry H395A): as the sequence (P11275 whole entry R433Q/R453Q/R469Q) above, with H395A, Q433R, Q453R, Q469R counted along it
Description: as §1, §2

CaMKIIα R433Q = target: T12, CaMKIIα R433Q (Rattus norvegicus, UniProt P11275, R433Q); experiment: [3H]HOCPCA binding, HEK293T whole-cell homogenate, CaMKIIα R433Q; conditions: 40 nM radioligand
T12 construct: host or cells: HEK293T whole-cell homogenate
T12 sequence (P11275 whole entry R433Q): as the sequence (P11275 whole entry R433Q/R453Q/R469Q) above, with Q453R, Q469R counted along it
Description: as §1, §2

CaMKIIα [6] = conditions: cited from earlier work
[7] = target: CaMKIIα (rat cortical homogenate); conditions: inhibition of [3H]HOCPCA binding, ref 1 (Leurs et al., PNAS 2021); read-out: Comparative Ki, [3H]HOCPCA binding; cited from earlier work
ischemia = conditions: several mouse models of ischemia; cited from earlier work
[8] = target: native CaMKIIα (rat cortical homogenate) (Rattus norvegicus, UniProt P11275); experiment: Competitive inhibition of [3H]O-5-HDC binding, rat cortical homogenate; parameters: native CaMKIIα (rat cortical homogenate); from tissue; host or cells: rat cerebral cortex homogenate
native CaMKIIα (rat cortical homogenate), sequence (P11275 whole entry): as the sequence (P11275 whole entry R433Q/R453Q/R469Q) above, with Q433R, Q453R, Q469R counted along it
Source text: Ki values were obtained from the One Site-Fit Ki model utilizing the following Cheng-Prusoff equation: […]
Where [RL] represents the specific radioligand concentration from each experiment and KD is the dissociation constant of [^3H]O-5-HDC acquired from saturation curves.

[9] = cited from earlier work
CaMKIIβ L467W/C533R [10] = target: T8, CaMKIIβ L467W/C533R; experiment: Displacement of [3H]O-5-HDC binding in CaMKIIβ L467W/C533R HEK293T homogenate
Description: as §1, §2
Specific binding (% of control)=Top-Bottom1+10(log(IC50-[compound]))
where top and bottom represent the upper and lower plateaus of the curve, respectively.

[11] = target: CaMKIIα-W403L hub protein; parameters: method as in PMID 39275999; conditions: SPR, purified CaMKIIα-W403L hub; cited from earlier work
CaMKIIα-WT hub protein = target: CaMKIIα-WT hub protein; parameters: method as in PMID 39275999; conditions: SPR, purified CaMKIIα-WT hub; cited from earlier work

T1 sequence (P11275 whole entry): as the sequence (P11275 whole entry R433Q/R453Q/R469Q) above, with Q433R, Q453R, Q469R counted along it

O=C(O)Cc1cc(O)c(I)cc1Oc1ccccc1Cl [compound 1]
affinity [1]: mid-micromolar | change in affinity in comparison to O-5-HDC [1]: 100 X

O=C(O)Cc1cc(O)ccc1Oc1ccccc1Cl
Ki (CaMKIIα [2]): 27 nM

O=C(O)Cc1c(Oc2ccccc2Cl)cc(I)c(O)c1I [compound 2]
affinity [1]: mid-micromolar | change in affinity in comparison to O-5-HDC [1]: 100 X

[3H]C1(O)C=C(C(=O)O)CC1 (stereo not drawn) [[^3H]HOCPCA]
specific [3H]HOCPCA binding [3]: completely binding-deficient | specific [3H]HOCPCA binding remaining (CaMKIIα R453Q): 7–9% | specific [3H]HOCPCA binding (CaMKIIγ C518R): no specific binding | specific [3H]HOCPCA binding (CaMKIIβ C533R): no specific binding | specific [3H]HOCPCA binding (CaMKIIβ L467W): no detected specific [^3H]HOCPCA binding; also recorded: Neither of these led to any noticeable radioligand binding | specific [3H]HOCPCA binding (CaMKIIα R469Q): completely abolished | specific [3H]HOCPCA binding (CaMKIIβ L467W/C533R [4]): no detected specific [^3H]HOCPCA binding; also recorded: Neither of these led to any noticeable radioligand binding | specific [3H]HOCPCA binding (CaMKIIβ WT): no detected specific [^3H]HOCPCA binding | specific [3H]HOCPCA binding (CaMKIIα W403L): 70 % of WT | Bmax [5]: 43 pmol/mg protein | Kd [5]: 260 nM | pKd ± SEM [5]: 6.6 ± 0.06 | specific [3H]HOCPCA binding remaining (CaMKIIα H395A): 7–9% | specific [3H]HOCPCA binding (CaMKIIα R433Q): completely abolished

O=C(O)C1=CC(O)CC1 (stereo not drawn) [HOCPCA, 3-hydroxycyclopent-1-enecarboxylic acid]
effect on CaMKIIα activity (syntide-2 phosphorylation) (CaMKIIα [6]): not to affect CaMKIIα activity | Ki [7]: 130 nM | neuroprotection (ischemia): neuroprotective | Ki ([8]; Ki): 1270 nM | Ki ([8]; pKi ± S.E.M., inhibition of [3H]O-5-HDC binding, rat cortical homogenate, n = 4): 1170 nM | lower affinity in displacing [3H]O-5-HDC than [3H]HOCPCA ([8]; rat cortical homogenate): 10 fold

O=C(O)Cc1cc(O)ccc1Nc1c(Cl)cccc1Cl [5-HDC, 5-hydroxydiclofenac]
chemical stability [9]: chemically unstable

O=C(O)CCCO [GHB, γ-hydroxybutyric acid]
effect on CaMKIIα activity (syntide-2 phosphorylation) (CaMKIIα [6]): not to affect CaMKIIα activity | neuroprotection (ischemia): neuroprotective | lower affinity in displacing [3H]O-5-HDC than [3H]HOCPCA ([8]; rat cortical homogenate): 10 fold | IC50 (CaMKIIβ L467W/C533R [10]; IC50, displacement of [3H]O-5-HDC): 710000 nM | IC50 (CaMKIIβ L467W/C533R [10]; pIC50 (value in parentheses after IC50), displacement of [3H]O-5-HDC): 676000 nM

O=C(O)Cc1cn2nc(-c3ccc(Cl)cc3)ccc2n1 [PIPA]
Kd [11]: 2800 nM | Kd (CaMKIIα-WT hub protein): 1400 nM
